Test system: Saccharomyces cerevisiae wild type strain BY4743
Assay: AF1 metabolite analysis (GC-MS, LC-MS) of yeast cells treated with antifungal drugs
Assay type: cell-based
Details: for # Compounds perturbed: 2x MIC, two hours; for Fold Change of NacetylDglucosamine: metabolite NacetylDglucosamine; for Fold Change of NacetylLglutamate: metabolite NacetylLglutamate; for Fold Change of NacetylLornithine: metabolite NacetylLornithine; for Fold Change of nicotinic acid: metabolite nicotinic acid; for Fold Change of nopaline: metabolite nopaline; for Fold Change of oleic acid: metabolite oleic acid; for Fold Change of ornithine: metabolite ornithine; for Fold Change of phenylalanine: metabolite phenylalanine; for Fold Change of phosphoenolpyruvate: metabolite phosphoenolpyruvate; for Fold Change of pipecolic acid: metabolite pipecolic acid; for Fold Change of proline: metabolite proline; for Fold Change of pyridoxine: metabolite pyridoxine; for Fold Change of selenoDLmethionine: metabolite selenoDLmethionine; for Fold Change of serine: metabolite serine; for Fold Change of sugar-phosphate: metabolite sugar-phosphate; for Fold Change of tetradecanoic acid: metabolite tetradecanoic acid; for Fold Change of threonine/homoserin: metabolite threonine/homoserin; for Fold Change of thymine: metabolite thymine; for Fold Change of tryptophan: metabolite tryptophan; for Fold Change of tyrosine: metabolite tyrosine; for Fold Change of urocanic acid: metabolite urocanic acid; for Fold Change of valine: metabolite valine; for Fold Change of zeatin: metabolite zeatin

CC[C@@H]([C@H](C)O)n1ncn(-c2ccc(N3CCN(c4ccc(OC[C@@H]5CO[C@@](Cn6cncn6)(c6ccc(F)cc6F)C5)cc4)CC3)cc2)c1=O [Posaconazole]
# Compounds perturbed (P < 0.05): 3
# Compounds perturbed (P < 0.1): 4
Fold Change (metabolite 2-ketobutyric acid, platform nLC): −0.9992
Fold Change (metabolite 2-ketoglutaric, platform nLC): 11.33
Fold Change (metabolite 3-indolylacetonitri, platform nLC): −0.9998
Fold Change (metabolite 4-aminobenzoic acid, platform pLC): 0
Fold Change (metabolite 4-methylcatechol, platform nLC): 0
Fold Change (metabolite 4-methylcatechol, platform pLC): 0
Fold Change (metabolite 4ambutyrate/dimglyc, platform pLC): 31.37
Fold Change (metabolite 4aminobutyrate/dimg, platform nLC): −0.008939
Fold Change (metabolite 5hydroxyLtryptophan, platform nLC): 0
Fold Change (metabolite 5hydroxyLtryptophan, platform pLC): 0
Fold Change (metabolite 6-benzylaminopurine, platform nLC): 0
Fold Change (metabolite 6benzylaminopurine, platform pLC): 0
Fold Change (metabolite DLaminoadipic acid, platform nLC): −0.9935
Fold Change of NacetylDglucosamine (platform nLC): 0
Fold Change of NacetylDglucosamine (platform pLC): 0
Fold Change of NacetylLglutamate (platform nLC): −0.07165
Fold Change of NacetylLglutamate (platform pLC): 0
Fold Change of NacetylLornithine (platform nLC): 0
Fold Change of NacetylLornithine (platform pLC): 0.1338
Fold Change of TMS mevalonic acid lactone (metabolite TMS mevalonic acid lactone, platform GC): −0.3118
Fold Change (metabolite abscisic acid, platform nLC): 0
Fold Change (metabolite abscisic acid, platform pLC): 0
Fold Change (metabolite aconitic acid, platform nLC): 1.874
Fold Change (metabolite adenine, platform nLC): 0
Fold Change (metabolite adenine, platform pLC): −0.0145
Fold Change (metabolite adenosine, platform nLC): 128.3
Fold Change (metabolite adenosine, platform pLC): 0
Fold Change (metabolite alanine/sarcosine, platform pLC): 0.1013
Fold Change (metabolite alanine, platform GC): 1.035
Fold Change (metabolite alanine, platform nLC): 0.1091
Fold Change (metabolite allantoic acid, platform nLC): 0.3321
Fold Change (metabolite allantoic acid, platform pLC): 0
Fold Change (metabolite allantoin, platform nLC): 5.97
Fold Change (metabolite anthranillic acid, platform nLC): 0
Fold Change (metabolite anthranillic acid, platform pLC): 0
Fold Change (metabolite arginine, platform nLC): 0.1707
Fold Change (metabolite arginine, platform pLC): 0.03383
Fold Change (metabolite argininosuccinate, platform nLC): 318.3
Fold Change (metabolite argininosuccinate, platform pLC): 0
Fold Change (metabolite asparagine, platform GC): 0.145
Fold Change (metabolite asparagine, platform nLC): 0.006865
Fold Change (metabolite asparagine, platform pLC): 0.4302
Fold Change (metabolite aspartic acid, platform GC): −0.071
Fold Change (metabolite aspartic acid, platform pLC): 0.3626
Fold Change (metabolite aspartic, platform nLC): 0.305
Fold Change (metabolite benzoic acid, platform nLC): 0
Fold Change (metabolite biotin, platform nLC): −0.9992
Fold Change (metabolite biotin, platform pLC): 0
Fold Change (metabolite caffeic acid, platform nLC): −0.49
Fold Change (metabolite caffeine, platform pLC): 0
Fold Change (metabolite campesterol, platform GC): 0
Fold Change (metabolite catechol, platform nLC): 0
Fold Change (metabolite cinnamic acid, platform nLC): 0
Fold Change (metabolite citric acid TME, platform pLC): 0
Fold Change (metabolite citricanoic/itaconi, platform nLC): 0
Fold Change (metabolite citrulline, platform nLC): 1160
Fold Change (metabolite citrulline, platform pLC): 0.1011
Fold Change (metabolite coumaric acid, platform nLC): 0
Fold Change (metabolite cytidine, platform nLC): −0.9986
Fold Change (metabolite cytidine, platform pLC): 0
Fold Change (metabolite cytosine, platform nLC): 0
Fold Change (metabolite cytosine, platform pLC): 1135
Fold Change (metabolite decanoic acid, platform nLC): 0.1263
Fold Change (metabolite desmosterol, platform GC): 0
Fold Change (metabolite diaminopimelic acid, platform nLC): 0
Fold Change (metabolite diaminopimelic acid, platform pLC): 0
Fold Change (metabolite dihydrofolic acid, platform nLC): 0
Fold Change (metabolite dihydrofolic acid, platform pLC): 0
Fold Change (metabolite dipicolinic acid, platform pLC): 0
Fold Change (metabolite disaccaride1, platform GC): 0.04733
Fold Change (metabolite disaccaride2, platform GC): 0.313
Fold Change (metabolite disaccaride3, platform GC): 0.3407
Fold Change of mevalonic acid lactone (metabolite mevalonic acid lactone, platform GC): 0.5555
Fold Change of mevalonic lactone (metabolite mevalonic lactone, platform pLC): −0.08368
Fold Change of niacinamide (metabolite niacinamide, platform pLC): 0
Fold Change of nicotinic acid (platform nLC): 1.421
Fold Change of nicotinic acid (platform pLC): −0.8142
Fold Change of nopaline (platform nLC): 0.7554
Fold Change of nopaline (platform pLC): 0
Fold Change of octadecanoic acid (metabolite octadecanoic acid, platform GC): 0.321
Fold Change of oleic acid (platform GC): −0.5057
Fold Change of oleic acid (platform nLC): 0.5606
Fold Change of ornithine2 (metabolite ornithine2, platform GC): −0.1383
Fold Change of ornithine3 (metabolite ornithine3, platform GC): 0.041
Fold Change of ornithine (platform nLC): 2.314
Fold Change of ornithine (platform pLC): 0.4314
Fold Change of orotic acid (metabolite orotic acid, platform nLC): 0
Fold Change of palmiteliadic acid (metabolite palmiteliadic acid, platform GC): −0.2453
Fold Change of palmitic acid (metabolite palmitic acid, platform nLC): 0.1518
Fold Change of phenylalanine (platform GC): 0.06069
Fold Change of phenylalanine (platform nLC): −0.03702
Fold Change of phenylalanine (platform pLC): −0.1585
Fold Change of phenylpyruvic acid (metabolite phenylpyruvic acid, platform nLC): 0
Fold Change of phosphate (metabolite phosphate, platform GC): −0.1833
Fold Change of phosphoenolpyruvate (platform nLC): 0
Fold Change of phosphoenolpyruvate (platform pLC): 0
Fold Change of pinitol (metabolite pinitol, platform nLC): 0
Fold Change of pipecolic acid (platform nLC): 0.1806
Fold Change of pipecolic acid (platform pLC): 0.3444
Fold Change of porphobilinogen (metabolite porphobilinogen, platform nLC): 0
Fold Change of progesterone (metabolite progesterone, platform pLC): 0
Fold Change of proline (platform nLC): 0.3147
Fold Change of proline (platform pLC): 0.3157
Fold Change of pyridoxine (platform nLC): −0.1015
Fold Change of pyridoxine (platform pLC): −0.239
Fold Change of pyrimidine (metabolite pyrimidine, platform GC): 0.159
Fold Change of retinoic acid (metabolite retinoic acid, platform nLC): 0
Fold Change of riboflavin (metabolite riboflavin, platform pLC): 0
Fold Change of salicylic/HObenzoic (metabolite salicylic/HObenzoic, platform nLC): 0
Fold Change of selenoDLmethionine (platform nLC): −0.6722
Fold Change of selenoDLmethionine (platform pLC): −0.7083
Fold Change of serine (platform nLC): 0.152
Fold Change of serine (platform pLC): 0.2417
Fold Change of shikimic acid (metabolite shikimic acid, platform nLC): 0
Fold Change of sinapinic acid (metabolite sinapinic acid, platform nLC): 0
Fold Change of sorbitol/mannitol (metabolite sorbitol/mannitol, platform nLC): 0.009121
Fold Change of squalene (metabolite squalene, platform GC): 0.07431
Fold Change of succinic (metabolite succinic, platform nLC): −0.06141
Fold Change of sucrose (metabolite sucrose, platform nLC): 0.1847
Fold Change of sugar-phosphate (platform nLC): −0.04543
Fold Change of sugar-phosphate (platform pLC): 0
Fold Change of tetradecanoic acid (platform GC): −0.214
Fold Change of tetradecanoic acid (platform nLC): 1.029
Fold Change of thiamine (metabolite thiamine, platform pLC): 0
Fold Change of threonine2 (metabolite threonine2, platform GC): 0.457
Fold Change of threonine3 (metabolite threonine3, platform GC): 0.225
Fold Change of threonine/homoserin (platform nLC): 0.04034
Fold Change of threonine/homoserin (platform pLC): 0.1437
Fold Change of thymine (platform nLC): 0
Fold Change of thymine (platform pLC): 0
Fold Change of tms glutamine3 (metabolite tms glutamine3, platform GC): 0.6709
Fold Change of tms lysine4 (metabolite tms lysine4, platform GC): 0.05667
Fold Change of tms tyrosine2 (metabolite tms tyrosine2, platform GC): 1.228
Fold Change of tms tyrosine3 (metabolite tms tyrosine3, platform GC): 0.1911
Fold Change of tryptophan (platform nLC): 4.676
Fold Change of tryptophan (platform pLC): 0
Fold Change of tyrosine (platform nLC): 0.0282
Fold Change of tyrosine (platform pLC): 0.1008
Fold Change of uracil (metabolite uracil, platform nLC): −0.2779
Fold Change of uric acid (metabolite uric acid, platform pLC): 0
Fold Change of uridine (metabolite uridine, platform nLC): 0.02855
Fold Change of urocanic acid (platform nLC): 0
Fold Change of urocanic acid (platform pLC): 0
Fold Change of valine (platform GC): 0.345
Fold Change of valine (platform nLC): 0.0195
Fold Change of xanthosine(diH2O) (metabolite xanthosine(diH2O), platform pLC): 0
Fold Change of xanthosineDiH2O (metabolite xanthosineDiH2O, platform nLC): 0
Fold Change of zeatin (platform nLC): 0
Fold Change of zeatin (platform pLC): 0
